Assay results taken from publication PMC2792043 (PLoS ONE, 2009).

Tests used:
[1] = system: influenza A and B viruses; format: cell-based
[2] = molecular target: NA from influenza PR8 virus (Influenza A virus, UniProt P03468); experiment: biochemical
NA from influenza PR8 virus, sequence (P03468 whole entry, looked up): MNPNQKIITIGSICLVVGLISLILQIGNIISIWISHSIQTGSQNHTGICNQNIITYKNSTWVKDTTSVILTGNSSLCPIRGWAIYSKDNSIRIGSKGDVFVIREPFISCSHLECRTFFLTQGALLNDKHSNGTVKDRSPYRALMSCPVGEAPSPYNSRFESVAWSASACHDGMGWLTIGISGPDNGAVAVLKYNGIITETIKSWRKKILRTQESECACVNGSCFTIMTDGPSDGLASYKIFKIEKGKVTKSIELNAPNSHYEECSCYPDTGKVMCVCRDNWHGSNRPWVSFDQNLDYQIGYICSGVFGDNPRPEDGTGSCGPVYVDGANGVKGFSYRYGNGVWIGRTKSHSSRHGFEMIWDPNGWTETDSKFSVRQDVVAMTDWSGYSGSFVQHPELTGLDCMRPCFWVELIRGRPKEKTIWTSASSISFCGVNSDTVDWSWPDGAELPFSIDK

For `O=C(O)C1=CC(=C(c2ccc(O)c(C(=O)O)c2)c2ccc(O)c(C(=O)O)c2)C=CC1=O` [ATA, Aurintricarboxylic acid], the “replication after pre-incubation of virus with ATA” value [1] was “inhibited replication of both WSN and H274Y viruses in a dose-responsive fashion” and the IC50 [2] was 17 µM.
